Consider 23 compounds from patent US12263171B2, “7-, 8-, and 10-substituted amino triazolo quinazoline derivatives as adenosine receptor antagonists, pharmaceutical compositions and their use” (Merck Sharp & Dohme LLC, priority 2018, dated 2025).

Test [1] concerns the target human A2a adenosine receptor (Homo sapiens (Human), UniProt P29274). Briefly: A2a receptor affinity radioligand binding assay ([3H] SCH58261, membranes from HEK293 or CHO cells). Conditions: unstarred values: radioligand binding. How it is done:
The A2a receptor affinity binding assay measured the amount of binding of a tritiated ligand with high affinity for the A2a adenosine receptor to membranes made from HEK293 or CHO cells recombinantly expressing the human A2a adenosine receptor, in the presence of varying concentrations of a compound of the invention.
Measurement of A2a Binding Affinity Using Radioligand Binding
148 μL, (5 μg/mL) membranes (Perkin Elmer, Cat. No. RBHA2aM4001A) and 2 μL compounds of the invention to be tested (test compound) were transferred to individual wells of a 96-well polypropylene assay plate and incubated for 15 to 30 minutes at room temperature. [^3H] SCH58261 ((7-(2-phenylethyl)-5-amino-2-(2-furyl)-pyrazolo-[4,3-e]-1,2,4-triazolo[1,5-c]pyrimidine)) was diluted in assay buffer (50 mM Tris pH 7.4, 10 mM MgCl2, 0.005% Tween20) to a concentration of 4 nM and 50 μL transferred to each well of the assay plate. […] The assay plate was incubated at room temperature for 60 minutes with agitation. […] Filtering was achieved by aspirating the contents of the assay plate for 5 seconds, then washing and aspirating the contents three times with ice-cooled wash buffer (50 mM Tris-HCl pH 7.4, 150 mM NaCl) and allowing the vacuum manifold to dry the plate for 30 seconds. The filter plate was incubated for at least 1 hour at 55° C. and allowed to dry. The bottom of the filter plate was sealed with backing tape. 40 μL. […] The plate was incubated for at least 20 minutes, and then the amount of radioactivity remaining in each well was determined using a TopCown® (Perkin Elmer) scintillation counter. After normalization to total and non-specific binding, the percent effect at each compound concentration was calculated. The plot of percent effect versus the log of compound concentration was analyzed electronically using a 4-parameter logistic fit based on the Levenberg-Marquardt algorithm to generate IC50 values.

The target in test [2] is human A2b adenosine receptor (Homo sapiens (Human), UniProt P29275). Briefly: A2b radioligand filtration binding assay (tritiated proprietary A2b antagonist, HEK293 membranes). The following applies: unstarred values: radioligand binding. How it is done:
Measurement of A2b Binding Affinity
The reported affinity of the compounds of the invention for the human A2b adenosine receptor was determined experimentally using a radioligand filtration binding assay. This assay measures the amount of binding of a tritiated proprietary A2b receptor antagonist, in the presence and absence of a compound of the invention, to membranes made from HEK293 cells recombinantly expressing the human A2b adenosine receptor (Perkin Elmer, Cat. No. ES-013-C).
The filter plate was incubated for at least 1 hour at 55° C. and allowed to dry. The bottom of the filter plate was then sealed with backing tape. […] The plates were then incubated for at least 20 minutes, and then the amount of radioactivity remaining in each well was determined using a TopCount® (Perkin Elmer) scintillation counter. After normalization to total and non-specific binding, the percent effect at each compound concentration was calculated. The plot of percent effect versus the log of compound concentration was analyzed electronically using a 4-parameter logistic fit based on the Levenberg-Marquardt algorithm to generate IC50 values.

Sequence of human A2a adenosine receptor (P29274 whole entry): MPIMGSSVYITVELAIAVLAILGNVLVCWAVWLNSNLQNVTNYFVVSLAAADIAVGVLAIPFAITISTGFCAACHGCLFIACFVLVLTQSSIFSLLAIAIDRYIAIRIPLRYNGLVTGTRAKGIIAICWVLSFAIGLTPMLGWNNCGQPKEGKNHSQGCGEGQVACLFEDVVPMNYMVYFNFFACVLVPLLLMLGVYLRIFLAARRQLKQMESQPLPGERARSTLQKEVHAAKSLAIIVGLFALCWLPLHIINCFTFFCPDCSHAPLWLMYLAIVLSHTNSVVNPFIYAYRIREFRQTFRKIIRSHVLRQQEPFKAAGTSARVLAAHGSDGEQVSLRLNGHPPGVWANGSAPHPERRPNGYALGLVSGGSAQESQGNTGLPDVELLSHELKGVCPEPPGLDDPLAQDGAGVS
Sequence of human A2b adenosine receptor (P29275 whole entry): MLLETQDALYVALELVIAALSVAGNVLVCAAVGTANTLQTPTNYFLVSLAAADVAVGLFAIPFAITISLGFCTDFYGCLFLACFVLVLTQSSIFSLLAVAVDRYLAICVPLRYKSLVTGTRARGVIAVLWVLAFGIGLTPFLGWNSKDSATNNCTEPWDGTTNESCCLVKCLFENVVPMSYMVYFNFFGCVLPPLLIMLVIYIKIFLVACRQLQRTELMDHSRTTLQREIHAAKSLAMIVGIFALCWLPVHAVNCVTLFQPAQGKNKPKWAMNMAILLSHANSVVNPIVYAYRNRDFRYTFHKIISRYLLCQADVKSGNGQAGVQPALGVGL

For `COc1cccc2c1nc(N)n1nc([C@@H]3CCCN(c4cn(CC(C)(C)O)nc4C)C3)nc21` [Example 30, (R)-1-(4-(3-(5-amino-7-methoxy-[1,2,4]triazolo[1,5-c]quinazolin-2-yl)piperidin-1-yl)-3-methyl-1H-pyrazol-1-yl)-2-methylpropan-2-ol], the IC50 turned out to be 0.4 nM in test [1] and 103 nM in test [2].

As to `COc1cccc2c1nc(N)n1nc([C@@H]3CCCN(c4cn(CC5(O)CCC5)nc4C)C3)nc21` [Example 32, (R)-1-((4-(3-(5-amino-7-methoxy-[1,2,4]triazolo[1,5-c]quinazolin-2-yl)piperidin-1-yl)-3-methyl-1H-pyrazol-1-yl)methyl)cyclobutan-1-ol], the IC50 in test [1] worked out at 1.1 nM; in test [2], 0.7 nM.

Turning to `COc1cccc2c1nc(N)n1nc([C@@H]3CCCN(c4cnn(CC(C)(C)O)c4C)C3)nc21` [Example 33, (R)-1-(4-(3-(5-amino-7-methoxy-[1,2,4]triazolo[1,5-c]quinazolin-2-yl)piperidin-1-yl)-5-methyl-1H-pyrazol-1-yl)-2-methylpropan-2-ol], the IC50 in test [1] amounted to 0.1 nM; in test [2], 320 nM.

As to `COc1cccc2c1nc(N)n1nc([C@@H]3CCCN(c4cnn([C@H]5C[C@@](C)(O)C5)c4)C3)nc21` [Example 35, (R)-3-(4-(3-(5-amino-7-methoxy-[1,2,4]triazolo[1,5-c]quinazolin-2-yl)piperidin-1-yl)-1H-pyrazol-1-yl)-1-methylcyclobutan-1-ol], the IC50 was 0.7 nM in test [1] and 41.9 nM in test [2].

Turning to `CCNC(=O)C(C)(C)n1cc(N2CCC[C@@H](c3nc4c5cccc(OC)c5nc(N)n4n3)C2)cn1` [Example 36, (R)-2-(4-(3-(5-amino-7-methoxy-[1,2,4]triazolo[1,5-c]quinazolin-2-yl)piperidin-1-yl)-1H-pyrazol-1-yl)-N-ethyl-2-methylpropanamide], the IC50 in test [1] came out at 1.8 nM; in test [2], 1.7 nM.

As to `COc1cccc2c1nc(N)n1nc([C@@H]3CCCN(c4cnn(C(C)(C)C(=O)NC5CCC5)c4)C3)nc21` [Example 37, (R)-2-(4-(3-(5-amino-7-methoxy-[1,2,4]triazolo[1,5-c]quinazolin-2-yl)piperidin-1-yl)-1H-pyrazol-1-yl)-N-cyclobutyl-2-methylpropanamide], the IC50 in test [1] came to 1.5 nM; in test [2] it was 10.7 nM.

As to `COc1cccc2c1nc(N)n1nc([C@@H]3CCCN(c4cnn(C(C)(C)C(=O)NC(C)C)c4)C3)nc21` [Example 38, (R)-2-(4-(3-(5-amino-7-methoxy-[1,2,4]triazolo[1,5-c]quinazolin-2-yl)piperidin-1-yl)-1H-pyrazol-1-yl)-N-isopropyl-2-methylpropanamide], the IC50 in test [1] amounted to 4.1 nM; in test [2], 1.4 nM.

With `COc1cccc2c1nc(N)n1nc([C@@H]3CCCN(c4cnn([C@@H]5CCCC[C@]5(C)O)c4)C3)nc21` [Example 42, (1S,2R)-2-(4-((R)-3-(5-amino-7-methoxy-[1,2,4]triazolo[1,5-c]quinazolin-2-yl)piperidin-1-yl)-1H-pyrazol-1-yl)-1-methylcyclohexan-1-ol], the concentration for half-maximal inhibition (IC50) in test [1] worked out at 1.2 nM; in test [2], 3.5 nM.

For the compound `COc1cccc2c1nc(N)n1nc([C@@H]3CCCN(c4cnn([C@H]5CCCC[C@]5(C)O)c4)C3)nc21` [Example 43, (1S,2S)-2-(4-((R)-3-(5-amino-7-methoxy-[1,2,4]triazolo[1,5-c]quinazolin-2-yl)piperidin-1-yl)-1H-pyrazol-1-yl)-1-methylcyclohexan-1-ol], the values for the IC50 in test [1] and in test [2] were 0.5 nM and 1.9 nM, respectively.

Consider `COc1cccc2c1nc(N)n1nc([C@@H]3CCCN(c4cnn(CC5(O)CCCCC5)c4)C3)nc21` [Example 44, (R)-1-((4-(3-(5-amino-7-methoxy-[1,2,4]triazolo[1,5-c]quinazolin-2-yl)piperidin-1-yl)-1H-pyrazol-1-yl)methyl)cyclohexan-1-ol], for which the results for the IC50 in test [1] and in test [2] were 1.2 nM and 132 nM, respectively.

In the case of `COc1cccc2c1nc(N)n1nc([C@@H]3CCCN(c4cnn([C@@H]5CCNC5)c4)C3)nc21` [Example 45, 7-methoxy-2-((R)-1-(1-((R)-pyrrolidin-3-yl)-1H-pyrazol-4-yl)piperidin-3-yl)-[1,2,4]triazolo[1,5-c]quinazolin-5-amine], the IC50 in test [1] stood at 2.6 nM; in test [2], 350 nM.

Take `COc1cccc2c1nc(N)n1nc([C@@H]3CCCN(c4cn(C5CCOCC5)nc4C)C3)nc21` [Example 46, (R)-7-methoxy-2-(1-(3-methyl-1-(tetrahydro-2H-pyran-4-yl)-1H-pyrazol-4-yl)piperidin-3-yl)-[1,2,4]triazolo[1,5-c]quinazolin-5-amine]: the IC50 came to 0.4 nM in test [1] and 404 nM in test [2].

Regarding `COc1cccc2c1nc(N)n1nc([C@@H]3CCCN(c4cnn(C5CCOCC5)c4C)C3)nc21` [Example 47, (R)-7-methoxy-2-(1-(5-methyl-1-(tetrahydro-2H-pyran-4-yl)-1H-pyrazol-4-yl)piperidin-3-yl)-[1,2,4]triazolo[1,5-c]quinazolin-5-amine], the IC50 was determined as 0.1 nM in test [1] and 223 nM in test [2].

Regarding `COc1cccc2c1nc(N)n1nc([C@@H]3CCCN(c4cn(C5CCOCC5)nc4C(F)F)C3)nc21` [Example 48], the figures for the IC50 in test [1] and in test [2] were 0.6 nM and 65.5 nM, respectively.

As for `COc1cccc2c1nc(N)n1nc([C@@H]3CCCN(c4cnn(C5CCOCC5)c4C(F)F)C3)nc21` [Example 49, (R)-2-(1-(5-(difluoromethyl)-1-(tetrahydro-2H-pyran-4-yl)-1H-pyrazol-4-yl)piperidin-3-yl)-7-methoxy-[1,2,4]triazolo[1,5-e]quinazolin-5-amine], the results for the IC50 in test [1] and in test [2] were 0.2 nM and 36 nM, respectively.

As to `COc1cccc2c1nc(N)n1nc([C@@H]3CCCN(c4cnn([C@H]5CCN(C)C5)c4)C3)nc21` [Example 50, 7-methoxy-2-((R)-1-(1-((S)-1-methylpyrrolidin-3-yl)-1H-pyrazol-4-yl)piperidin-3-yl)-[1,2,4]triazolo[1,5-c]quinazolin-5-amine], the 50% inhibitory concentration (IC50) in test [1] came to 0.9 nM; in test [2], 160 nM.

Consider `COc1cccc2c1nc(N)n1nc([C@@H]3CCCN(c4cn(C)nc4C(F)(F)F)C3)nc21` [Example 51, (R)-7-methoxy-2-(1-(1-methyl-3-(trifluoromethyl)-1H-pyrazol-4-yl)piperidin-3-yl)-[1,2,4]triazolo[1,5-c]quinazolin-5-amine], for which the values for the IC50 in test [1] and in test [2] were 0.1 nM and 85.9 nM, respectively.

On to `COc1cccc2c1nc(N)n1nc([C@@H]3CCCN(c4cn(CC(C)(C)O)nc4C(F)(F)F)C3)nc21` [Example 52, (R)-1-(4-(3-(5-amino-7-methoxy-[1,2,4]triazolo[1,5-c]quinazolin-2-yl)piperidin-1-yl)-3-(trifluoromethyl)-1H-pyrazol-1-yl)-2-methylpropan-2-ol], for which the IC50 in test [1] worked out at 0.4 nM; in test [2] it was 350 nM.

Regarding `COc1cccc2c1nc(N)n1nc([C@@H]3CCCN(c4cn(CC(C)(C)O)nc4C(F)F)C3)nc21` [Example 53, (R)-1-(4-(3-(5-amino-7-methoxy-[1,2,4]triazolo[1,5-c]quinazolin-2-yl)piperidin-1-yl)-3-(difluoromethyl)-1H-pyrazol-1-yl)-2-methylpropan-2-ol], the IC50 in test [1] was determined as 0.7 nM; in test [2], 151 nM.

As for `COc1cccc2c1nc(N)n1nc([C@@H]3CCCN(c4cnn(C(C)(C)CO)c4)C3)nc21` [Example 54, (R)-2-(4-(3-(5-amino-7-methoxy-[1,2,4]triazolo[1,5-c]quinazolin-2-yl)piperidin-1-yl)-1H-pyrazol-1-yl)-2-methylpropan-1-ol], the values for the IC50 in test [1] and in test [2] were 0.4 nM and 16.3 nM, respectively.

Consider `COc1cccc2c1nc(N)n1nc([C@@H]3CCCN(c4cn[nH]c4)C3)nc21` [Example 55], for which the IC50 was 1.5 nM in test [1] and 4.7 nM in test [2].

For `COc1cccc2c1nc(N)n1nc([C@@H]3CCCN(c4cnn(C5CCCC5OC)c4)C3)nc21` (stereo partly drawn) [Example 56, 7-methoxy-2-((3R)-1-(1-(2-methoxycyclopentyl)-1H-pyrazol-4-yl)piperidin-3-yl)-[1,2,4]triazolo[1,5-c]quinazolin-5-amine], the IC50 in test [1] was 0.9 nM; in test [2], 175 nM.

Take `COc1cccc2c1nc(N)n1nc([C@@H]3CCCN(c4cnn(C5CCCC5O)c4)C3)nc21` (stereo partly shown) [Example 58A]: the IC50 in test [1] turned out to be 0.2 nM; in test [2], 64.9 nM.

Broadly, the IC50 is the concentration that inhibits the measured activity by half. Read a low IC50 as greater potency.
